Experimental data taken from PubChem BioAssay AID2060501 (Molecular Pharmacology Branch, DTP, NCI, 2025).

Test system: 282377-053-R-J1-PDC complex spheroids, viability
Assay: Anticancer human tumor 282377-053-R-J1-PDC patient-derived colon adenocarcinoma cell line growth inhibition [GQUAD]
Settings: for IC50: curve of first compound; for viability, T/C: stronger effect = lower value
From the text: DNA G-quadruplex Stabilizer Agents in Combinations in Complex Spheroids
A high-throughput screen of multi-cell type tumor spheroids was designed to identify active combinations of DNA G-quadruplex stabilizer agents and targeted small molecules. Complex spheroids include a stromal component modeled by human endothelial cells (HUVEC) and fibroblasts modeled by human mesenchymal stem cells (MSCs). The concentration ranges selected for each drug and investigational agent were based upon clinically achievable concentrations if the clinical Cmax of the agent was known.
Compounds. The drugs and investigational agents: pidnarulex (CX-5461; NSC782164), APTO-253 (NSC789042), BRACO-19 (NSC847499), peposertib (NSC802822), ceralasertib (NSC780249), elimusertib (NSC800525), camonsertib (NSC841442), AZD-1390 (NSC803789), olaparib (NSC753686), talazoparib (NSC767125), ART-558 (NSC835418), sotorasib (NSC818433), MRTX-1133 (NSC836407), SN-38 (NSC673596), topotecan (NSC609699), etoposide (NSC141540), doxorubicin (NSC123127), gemcitabine (NSC613327), 5-fluorouracil (NSC19893), paclitaxel (NSC125973), vemurafenib (NSC761431), panobinostat (NSC761190), R-306465 (JNJ-16241199; NSC773264), adavosertib (NSC754352), TP-3654 (NSC805149), carboplatin (NSC241240), KSQ-4279 (NSC840948), and staurosporine (NSC755774) were obtained from the National Cancer Institute (NCI) Developmental Therapeutics Program Chemical Repository (34). The FDA-approved anticancer drug set is available from the NCI Developmental Therapeutics Program. […] The stock solutions were prepared in dimethyl sulfoxide (DMSO, Sigma-Aldrich, St. Louis, MO, cat. D2650) at 800-fold the tested concentration and stored at -70 degrees C prior to their use. All drugs and investigational agents were tested over a range starting from a high concentration at or near the clinical Cmax and decreasing in half-log increments. If the clinical Cmax for an agent had not been determined, the highest concentration tested was 10 microM.
2.3 Cell Culture. All cells were maintained in an incubator at 37 degrees C and 5% CO2 with 95% humidity. The PDC lines were cultured according to standard operating procedures established by the NCI PDMR. All PDCs were thawed and cultured in Matrigel-coated flasks prepared with a working solution of 1X Ham's F-12 nutrient mix, without supplementation (Invitrogen, cat. 11765054), 100 U/mL penicillin-streptomycin (Invitrogen, cat. 15140122), and 2.5% Matrigel (Corning Inc., cat. 354248) for the first three passages. The 857933-349-R-J2-PDC line was cultured in 6C/Colon 1B media, which includes advanced DMEM/F-12 (Thermo Fisher Scientific, cat. 12634028), 10 mM HEPES (Thermo Fisher Scientific, cat. 15630080), 1X GlutaMAX supplement (Thermo Fisher Scientific, cat. 35050061), 0.1 mg/mL primocin (InvivoGen, cat. ant-pm-2), 10% defined fetal bovine serum, heat inactivated (HyClone Laboratories Inc., cat. SH30070.03HI), 50% L-WRN conditioned media (ATCC, cat. CRL-3276), 1.25 mM N-Acetyl-L-cysteine (Sigma-Aldrich, cat. A9165), 10 mM nicotinamide (Sigma-Aldrich, cat. N0636), 1X B-27 supplement (Thermo Fisher Scientific, cat. 17504044), 1X N-2 supplement (Thermo Fisher Scientific, cat. 17502048), 10 microM Y-27632 dihydrochloride (Tocris Bioscience, cat. 1254), and 50 ng/mL human EGF recombinant protein (Thermo Fisher Scientific, cat. PHG0311). The 485176-168-R4-J1-PDC line was cultured in Panc media, which includes all 6C/Colon 1B media components plus 100 ng/mL human FGF-10 (Thermo Fisher Scientific, cat. 100-26), 500 nM SB-431542 (Selleckchem, cat. S1067), and gastrin (Tocris, cat. 3006).
[…]
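Also: spheroids exposed to compounds for 7 days before readout.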
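For viability, T/C in this document: percent of vehicle DMSO control viability with 100% = untreated-like growth.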

O=C(c1cc(Cc2n[nH]c(=O)c3ccccc23)ccc1F)N1CCN(C(=O)C2CC2)CC1 + Cc1[nH]c2ccc(F)cc2c1-c1nc2c3cccnc3c3ncccc3c2[nH]1
IC50 (second compound 0.0316 µM): > 10 µM
IC50 (second compound 0.1 µM): > 10 µM
IC50 (second compound 0.316 µM): > 10 µM
IC50 (second compound 1 µM): > 10 µM
IC50 (second compound 3.16 µM): > 10 µM
IC50 (second compound 10 µM): 1.55 µM
viability, T/C (second compound 0.0316 µM, first compound 0.0316 µM): 134%
viability, T/C (second compound 0.0316 µM, first compound 0.1 µM): 107%
viability, T/C (second compound 0.0316 µM, first compound 0.316 µM): 102%
viability, T/C (second compound 0.0316 µM, first compound 1 µM): 122%
viability, T/C (second compound 0.0316 µM, first compound 3.16 µM): 110%
viability, T/C (second compound 0.0316 µM, first compound 10 µM): 92%
viability, T/C (second compound 0.1 µM, first compound 0.0316 µM): 87.8%
viability, T/C (second compound 0.1 µM, first compound 0.1 µM): 98.6%
viability, T/C (second compound 0.1 µM, first compound 0.316 µM): 99.2%
viability, T/C (second compound 0.1 µM, first compound 1 µM): 99.6%
viability, T/C (second compound 0.1 µM, first compound 3.16 µM): 105%
viability, T/C (second compound 0.1 µM, first compound 10 µM): 89%
viability, T/C (second compound 0.316 µM, first compound 0.0316 µM): 92.8%
viability, T/C (second compound 0.316 µM, first compound 0.1 µM): 115%
viability, T/C (second compound 0.316 µM, first compound 0.316 µM): 101%
viability, T/C (second compound 0.316 µM, first compound 1 µM): 107%
viability, T/C (second compound 0.316 µM, first compound 3.16 µM): 97.1%
viability, T/C (second compound 0.316 µM, first compound 10 µM): 97%
viability, T/C (second compound 1 µM, first compound 0.0316 µM): 101%
viability, T/C (second compound 1 µM, first compound 0.1 µM): 111%
viability, T/C (second compound 1 µM, first compound 0.316 µM): 122%
viability, T/C (second compound 1 µM, first compound 1 µM): 111%
viability, T/C (second compound 1 µM, first compound 3.16 µM): 110%
viability, T/C (second compound 1 µM, first compound 10 µM): 114%
viability, T/C (second compound 3.16 µM, first compound 0.0316 µM): 75.4%
viability, T/C (second compound 3.16 µM, first compound 0.1 µM): 76.7%
viability, T/C (second compound 3.16 µM, first compound 0.316 µM): 93%
viability, T/C (second compound 3.16 µM, first compound 1 µM): 79.1%
viability, T/C (second compound 3.16 µM, first compound 3.16 µM): 69.8%
viability, T/C (second compound 3.16 µM, first compound 10 µM): 54.7%
viability, T/C (second compound 10 µM, first compound 0.0316 µM): 58.2%
viability, T/C (second compound 10 µM, first compound 0.1 µM): 40.2%
viability, T/C (second compound 10 µM, first compound 0.316 µM): 71.9%
viability, T/C (second compound 10 µM, first compound 1 µM): 57.9%
viability, T/C (second compound 10 µM, first compound 3.16 µM): 38.4%
viability, T/C (second compound 10 µM, first compound 10 µM): 25.8%
